Data: paper PMC5566973 (Frontiers in Pharmacology, 2017)
Several values for one entry are separate records, joined by “and”; a condition that tells them apart may be missing. Equal entries are not always repeated.

Key:
Caco-2 cell monolayers [1] = assay: in vitro; details: for ER-values at the tested concentrations: Caco-2 and MDCK, 1, 2, and 5 μM
Experimental: (§1) Caco-2, MDCK and MDCK-MRP2 cells were donated by Prof. Yan Xie and Yueming Ma from Shanghai University of Traditional Chinese Medicine. The cells were grown in culture dishes (Corning® Costar, Cambridge, MA, USA) using DMEM supplemented with 10% FBS, 1% NEAA and 1% penicillin-streptomycin solution. The cells were cultured in 5% CO2 and […] with 90% relative humidity at 37°C. The medium was replaced every other day during incubation. The cells were passaged every 3–4 days between 70 and 80% confluence at a 1:5 split ratio using 0.25% trypsin-EDTA. For the transport experiments, the cells from passages between 30 and 45 were seeded at 1 × 10^5 cells/cm^2 onto permeable polycarbonate inserts (0.45 μm pore size, seeding surface of 0.6 cm^2, Millipore, MA, USA) in 24-well plastic plates. The media in the culture plates were changed every other day for the first week after seeding and were replaced daily afterward. […] The cells were used for the transport experiments 21–28 (Caco-2) or 5–7 (MDCK and MDCK-MRP2) days after seeding, and only monolayers with a TEER-value above 420 Ω cm^2 were used during the studies.
(§2) The apical (AP) and basolateral (BL) sides are typical of polarized Caco-2, MDCK and MDCK-MRP2 epithelial cells. Before the experiments, the polarized cell monolayers were washed twice with warm HBSS solution and subsequently preincubated (37°C, 30 min). Afterward, HBSS solution on both sides of the cell monolayers was removed using a mini desktop vacuum pump. […] The final DMSO concentration in the HBSS or drug mixture was below 0.5%. The monolayers were incubated at 37°C, and 100 μL samples were taken at 30, 60, 90, and 120 min from the acceptor compartment and immediately replaced with the same volume of prewarmed fresh blank HBSS. TEER measurements for assessing the membrane integrity took place before and after the experiments.
(§3) The apparent permeability coefficients (Papp) and ER were calculated as Equations (2) and (3): […]
(§4) where dQ/dt is the steady-state flux, A is the membrane surface area, and C0 is the initial drug concentration in the donor compartment. PappBA is the Papp-value measured in BL to AP direction and PappAB is the Papp-value measured in AP to BL direction. It indicated the involvement of an active transport process when the ER-value is above 1.5 (Hubatsch et al., [2007]).

BCRP = assay: in vitro; details: human; for efflux ratio: Caco-2, ER, Caco-2, 2 μM
Experimental: as §1, §2, §3, §4

human MRP2 = target: T1, human MRP2 (Homo sapiens, UniProt Q92887); assay: Vesicular transport assay, Sf9 membrane vesicles expressing human MRP2; type: in vitro ADME; details: 1 μM, MgATP vs MgAMP
T1 construct: purchased GenoMembrane (Kanagawa, Japan); host or cells: Sf9
Experimental: (§5) The vesicular transport assay was implemented as described in the GenoMembrane™ vesicular transport kit protocol (GenoMembrane, Kanagawa, Japan) with minor changes. Briefly, vesicle stocks were thawed and diluted with assay buffer (50 mM MOPS-Tris, 70 mM KCl, and 7.5 mM MgCl2). […] MgAMP instead of MgATP was used as a control. Apart from these, 4 mM glutathione was also included in BCRP and MRP2 assays. Transport was terminated with ice cold assay buffer, and then samples were quickly transferred to a filter plate. Wells were immediately washed 5 times with 200 μL assay buffer and dried. The vesicles on the plate were dissolved in 50 μL of 80% methanol and centrifuged at 2,000 rpm for 2 min after collection, and repeating the above procedures. Mixed the two filtrates together and added the pre-cooled methanol. After centrifugation at 12,000 rpm for 5 min at 4°C, a 5 μL aliquot of supernatant was injected into the UPLC-ESI-MS/MS system for analysis. Furthermore, the uptake of NMQ (MDR1), LY (BCRP), and E217βG (MRP2) was used to evaluate the activity of specific vesicles.

Caco-2 cell monolayers [2] = details: Caco-2 monolayers, 250–500 μM; ref Khan et al., 2004; cited from earlier work
human BCRP = target: T2, human BCRP (Homo sapiens, UniProt Q9UNQ0); assay: Vesicular transport assay, Sf9 membrane vesicles expressing human BCRP; type: in vitro ADME; details: 1 μM, MgATP vs MgAMP
T2 construct: purchased GenoMembrane (Kanagawa, Japan); host or cells: Sf9
T2 sequence (Q9UNQ0 1-655): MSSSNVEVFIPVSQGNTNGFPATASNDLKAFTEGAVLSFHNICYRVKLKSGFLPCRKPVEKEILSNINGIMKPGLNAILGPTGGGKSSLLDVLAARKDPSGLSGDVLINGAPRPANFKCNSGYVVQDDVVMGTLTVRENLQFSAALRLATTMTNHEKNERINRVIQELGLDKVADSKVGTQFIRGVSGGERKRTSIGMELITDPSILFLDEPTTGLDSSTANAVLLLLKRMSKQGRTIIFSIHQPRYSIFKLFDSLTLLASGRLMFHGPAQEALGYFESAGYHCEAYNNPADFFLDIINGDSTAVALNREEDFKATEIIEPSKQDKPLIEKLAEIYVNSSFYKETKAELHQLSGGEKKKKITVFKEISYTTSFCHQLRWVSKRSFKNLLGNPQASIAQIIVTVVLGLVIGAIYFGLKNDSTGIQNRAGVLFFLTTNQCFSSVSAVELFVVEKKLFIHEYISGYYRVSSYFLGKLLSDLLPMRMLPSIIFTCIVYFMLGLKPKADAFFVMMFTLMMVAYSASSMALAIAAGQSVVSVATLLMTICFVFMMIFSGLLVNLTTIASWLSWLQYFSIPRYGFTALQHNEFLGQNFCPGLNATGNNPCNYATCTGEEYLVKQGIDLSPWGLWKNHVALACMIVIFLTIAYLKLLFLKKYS
Experimental: as §5

[3] = Caco-2, 2 μM, + Apigenin 0.025 mM (BCRP)
[4] = Caco-2, 2 μM, + Cimetidine 0.05 mM (OATs)
[5] = Caco-2, 2 μM, + ES 0.05 mM (OATPs)
[6] = Caco-2, 2 μM, + Gly-Sar 10 mM (PEPT1)
[7] = Caco-2, 2 μM, + Ko143 0.01 mM (BCRP)
[8] = Caco-2, 2 μM, + MK571 0.05 mM (MRP2)
[9] = Caco-2, 2 μM, + NaN3 10 mM (ATP)
[10] = Caco-2, 2 μM, + Phloretin 0.3 mM (MCTs)
[11] = Caco-2, 2 μM, + Phloridzin 0.5 mM (SGLT1)
[12] = Caco-2, 2 μM, + Probenecid 0.2 mM (MRP2)
[13] = Caco-2, 2 μM, + Quinidine 0.1 mM (MDR1)
[14] = Caco-2, 2 μM, + Sodium vanadate 0.05 mM (Na^+)
[15] = Caco-2, 2 μM, + TEA 5 mM (OCTs/OCTNs)
[16] = Caco-2, 2 μM, + Verapamil 0.1 mM (MDR1)
[17] = Caco-2, 2 μM, Control (no inhibitor or substrate)
[18] = Caco-2, 2 μM, Control (pH 7.4, 37°C, without EDTA)

T1 sequence (Q92887 whole entry): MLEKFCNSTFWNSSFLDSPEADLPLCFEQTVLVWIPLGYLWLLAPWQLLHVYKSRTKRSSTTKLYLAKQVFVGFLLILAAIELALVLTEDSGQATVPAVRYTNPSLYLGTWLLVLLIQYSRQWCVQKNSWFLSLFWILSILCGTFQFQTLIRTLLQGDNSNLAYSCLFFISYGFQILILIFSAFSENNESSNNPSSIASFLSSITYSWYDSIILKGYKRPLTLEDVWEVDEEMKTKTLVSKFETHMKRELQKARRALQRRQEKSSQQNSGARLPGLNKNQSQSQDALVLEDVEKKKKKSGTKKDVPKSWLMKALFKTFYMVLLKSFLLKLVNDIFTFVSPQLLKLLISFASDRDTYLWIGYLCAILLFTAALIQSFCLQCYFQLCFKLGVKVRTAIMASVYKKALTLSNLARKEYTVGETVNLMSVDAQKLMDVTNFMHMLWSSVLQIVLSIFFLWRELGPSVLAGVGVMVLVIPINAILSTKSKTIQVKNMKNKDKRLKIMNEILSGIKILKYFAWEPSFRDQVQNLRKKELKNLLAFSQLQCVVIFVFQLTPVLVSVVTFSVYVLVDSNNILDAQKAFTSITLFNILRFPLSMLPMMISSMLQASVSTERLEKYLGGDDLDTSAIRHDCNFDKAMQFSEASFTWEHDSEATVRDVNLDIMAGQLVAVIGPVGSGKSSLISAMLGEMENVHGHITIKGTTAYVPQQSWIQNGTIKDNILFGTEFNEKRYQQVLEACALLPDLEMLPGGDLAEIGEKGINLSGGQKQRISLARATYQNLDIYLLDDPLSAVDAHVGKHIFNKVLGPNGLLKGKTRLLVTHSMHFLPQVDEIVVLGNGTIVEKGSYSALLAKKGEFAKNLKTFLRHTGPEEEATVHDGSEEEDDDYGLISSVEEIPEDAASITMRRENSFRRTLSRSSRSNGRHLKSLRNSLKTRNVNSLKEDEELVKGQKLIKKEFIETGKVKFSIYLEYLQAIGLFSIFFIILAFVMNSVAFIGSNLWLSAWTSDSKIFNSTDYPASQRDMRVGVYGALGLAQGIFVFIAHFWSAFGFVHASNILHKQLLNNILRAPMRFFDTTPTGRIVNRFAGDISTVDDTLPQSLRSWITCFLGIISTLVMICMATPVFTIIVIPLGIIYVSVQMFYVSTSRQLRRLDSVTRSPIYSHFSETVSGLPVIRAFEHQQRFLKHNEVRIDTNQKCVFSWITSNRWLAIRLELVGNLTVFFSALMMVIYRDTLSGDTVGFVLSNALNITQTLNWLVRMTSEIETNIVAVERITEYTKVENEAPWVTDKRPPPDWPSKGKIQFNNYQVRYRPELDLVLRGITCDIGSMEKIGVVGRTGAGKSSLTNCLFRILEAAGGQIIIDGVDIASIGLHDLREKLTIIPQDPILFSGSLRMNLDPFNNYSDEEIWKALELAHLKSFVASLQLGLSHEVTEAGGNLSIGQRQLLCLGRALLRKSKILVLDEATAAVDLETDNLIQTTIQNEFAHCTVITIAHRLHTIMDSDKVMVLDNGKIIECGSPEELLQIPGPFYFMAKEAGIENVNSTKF

## COc1ccc2c3c([nH]c2c1)C(C)=NCC3 [Harmaline]
Caco-2 cell monolayers [1]; Caco-2, 2 μM
  PappAB at pH 7.4 relative to pH 5.5: 3.65 folds
Caco-2 cell monolayers [1]; Caco-2, 2 μM, 4°C
  PappAB: 7.59 ± 0.33^*** 1 × 10^−6 cm/s
Caco-2 cell monolayers [1]; Caco-2, 2 μM, 4°C, listed as harmaline
  PappAB: 7.59 ± 0.33 1 × 10^−6 cm/s
Caco-2 cell monolayers [1]; [3]
  Modulatory effect: −
  PappAB: 27.85 ± 2.09 1 × 10^−6 cm/s
  PappBA: 26.04 ± 1.43 1 × 10^−6 cm/s
Caco-2 cell monolayers [1]; [4]
  Modulatory effect: −
  PappBA: 26.16 ± 1.79 1 × 10^−6 cm/s
Caco-2 cell monolayers [1]; [5]
  Modulatory effect: +
  PappAB: 24.33 ± 0.49 1 × 10^−6 cm/s
  PappBA: 26.41 ± 0.94 1 × 10^−6 cm/s
Caco-2 cell monolayers [1]; [6]
  Modulatory effect: −
  PappAB: 27.73 ± 0.95 1 × 10^−6 cm/s
  PappBA: 26.31 ± 1.18 1 × 10^−6 cm/s
Caco-2 cell monolayers [1]; [7]
  Modulatory effect: −
  PappBA: 26.15 ± 0.48 1 × 10^−6 cm/s
Caco-2 cell monolayers [1]; [8]
  Modulatory effect: −
  PappAB: 27.90 ± 1.31 1 × 10^−6 cm/s
  PappBA: 25.82 ± 0.71 1 × 10^−6 cm/s
Caco-2 cell monolayers [1]; [9]
  Modulatory effect: +
  PappAB: 22.75 ± 2.68^* 1 × 10^−6 cm/s
  PappBA: 26.18 ± 1.02 1 × 10^−6 cm/s
Caco-2 cell monolayers [1]; [10]
  Modulatory effect: −
  PappAB: 27.77 ± 2.14 1 × 10^−6 cm/s
  PappBA: 26.25 ± 0.91 1 × 10^−6 cm/s
Caco-2 cell monolayers [1]; [11]
  Modulatory effect: −
  PappAB: 27.57 ± 2.40 1 × 10^−6 cm/s
  PappBA: 26.07 ± 1.60 1 × 10^−6 cm/s
Caco-2 cell monolayers [1]; [12]
  Modulatory effect: −
  PappAB: 27.22 ± 1.04 1 × 10^−6 cm/s
  PappBA: 26.10 ± 1.02 1 × 10^−6 cm/s
Caco-2 cell monolayers [1]; [13]
  Modulatory effect: −
  PappAB: 27.54 ± 1.35 1 × 10^−6 cm/s
  PappBA: 26.44 ± 1.47 1 × 10^−6 cm/s
Caco-2 cell monolayers [1]; [14]
  Modulatory effect: +
Caco-2 cell monolayers [1]; [15]
  Modulatory effect: +
  PappBA: 26.75 ± 1.58 1 × 10^−6 cm/s
Caco-2 cell monolayers [1]; [16]
  Modulatory effect: −
  PappAB: 27.32 ± 1.33 1 × 10^−6 cm/s
  PappBA: 25.68 ± 1.55 1 × 10^−6 cm/s
Caco-2 cell monolayers [1]; [17]
  PappAB: 27.48 ± 0.18 1 × 10^−6 cm/s
  PappBA: 26.19 ± 4.02 1 × 10^−6 cm/s
Caco-2 cell monolayers [1]; [18]
  PappAB: 27.72 ± 1.06 1 × 10^−6 cm/s
  PappBA: 26.42 ± 0.49 1 × 10^−6 cm/s
Caco-2 cell monolayers [1]; Caco-2, 2 μM, with EDTA 5 mM
  PappAB: 35.23 ± 2.68^* 1 × 10^−6 cm/s
  PappBA: 39.57 ± 2.10^* 1 × 10^−6 cm/s
Caco-2 cell monolayers [1]; Caco-2, initial concentration 2 μM
  PappAB: 27.72 ± 1.06 1 × 10^−6 cm/s
Caco-2 cell monolayers [1]
  ER-values at the tested concentrations: < 1.5
BCRP; + Apigenin 0.025 mM (BCRP)
  efflux ratio: 0.94
BCRP; + Ko143 0.01 mM (BCRP)
  efflux ratio: 0.93
Human MRP2
  uptake ratio (UR): < 2.00 and 1.35
Caco-2 cell monolayers [2]
  efflux ratios (ER): < 1.0
Human BCRP
  uptake ratio (UR): < 2.00 and 1.42

## COc1ccc2c(c1)[nH]c1c(C)nccc12 [Harmine]
Caco-2 cell monolayers [1]; Caco-2, 2 μM, 4°C
  PappAB: 1.58 ± 0.57 1 × 10^−6 cm/s
Caco-2 cell monolayers [1]; [3]
  Modulatory effect: −
  PappBA: 28.40 ± 4.27 1 × 10^−6 cm/s
Caco-2 cell monolayers [1]; [4]
  Modulatory effect: −
Caco-2 cell monolayers [1]; [5]
  Modulatory effect: +
  PappAB: 14.64 ± 1.31 1 × 10^−6 cm/s
  PappBA: 28.43 ± 1.89 1 × 10^−6 cm/s
Caco-2 cell monolayers [1]; [6]
  Modulatory effect: −
  PappBA: 27.86 ± 1.96 1 × 10^−6 cm/s
Caco-2 cell monolayers [1]; [7]
  Modulatory effect: −
  PappBA: 27.96 ± 3.86 1 × 10^−6 cm/s
Caco-2 cell monolayers [1]; [8]
  Modulatory effect: +
  PappBA: 29.36 ± 2.73 1 × 10^−6 cm/s
Caco-2 cell monolayers [1]; [9]
  Modulatory effect: +
  PappBA: 27.94 ± 1.76 1 × 10^−6 cm/s
Caco-2 cell monolayers [1]; [10]
  Modulatory effect: −
  PappBA: 27.37 ± 2.13 1 × 10^−6 cm/s
Caco-2 cell monolayers [1]; [11]
  Modulatory effect: −
  PappBA: 29.39 ± 1.30 1 × 10^−6 cm/s
Caco-2 cell monolayers [1]; [12]
  Modulatory effect: +
  PappBA: 27.93 ± 2.33 1 × 10^−6 cm/s
Caco-2 cell monolayers [1]; [13]
  Modulatory effect: −
Caco-2 cell monolayers [1]; [14]
  Modulatory effect: +
Caco-2 cell monolayers [1]; [15]
  Modulatory effect: +
  PappBA: 28.05 ± 1.20 1 × 10^−6 cm/s
Caco-2 cell monolayers [1]; [16]
  Modulatory effect: −
Caco-2 cell monolayers [1]; [17]
  PappAB: 18.52 ± 2.06 1 × 10^−6 cm/s
  PappBA: 29.40 ± 1.38 1 × 10^−6 cm/s
Caco-2 cell monolayers [1]; [18]
  PappBA: 29.34 ± 1.21 1 × 10^−6 cm/s
Caco-2 cell monolayers [1]; Caco-2, 2 μM, with EDTA 5 mM
  PappBA: 29.67 ± 2.22 1 × 10^−6 cm/s
Caco-2 cell monolayers [1]; Caco-2, + MK571 vs control
  increase of PappAB: 1.62 folds
Caco-2 cell monolayers [1]; Caco-2, + probenecid vs control
  increase of PappAB: 1.27 folds
Caco-2 cell monolayers [1]
  ER-values at the tested concentrations: > 1.5
Caco-2 cell monolayers [1]; human, Caco-2
  PappAB: 24.11 ± 2.53^* 1 × 10^−6 cm/s
Caco-2 cell monolayers [1]; human, Caco-2, pH 7.4
  PappAB: 18.78 ± 1.26 1 × 10^−6 cm/s
BCRP; Caco-2, PappAB
  Papp A→B: 19 ± 3.67 ×10⁻⁶ cm/s
